Assay results from patent publication US20100234339A1, “SILVER(I) COMPOUNDS AND THEIR USE IN PHARMACEUTICAL COMPOSITIONS FOR THE TREATMENT,PROPHYLAXIS AND PREVENTION OF INFECTIONS” (priority 2007, published 2010).

What was measured:
Solubility in DMSO = format: physicochemical; conditions: sparingly soluble
P. mirabilis 1 = assay: MIC, broth microdilution (NCCLS); format: cell-based; conditions: Gram negative; resistant clinical isolate from diabetic foot ulcer; MHB 24 h 35° C.
Description: (§1) Their antimicrobial activity was established according to the recommendations of NCCLS, (National Committee for Clinical Laboratory Standards 1999, “Performance standards for antimicrobial susceptibility testing. NCCLS approved standard M100-S9” Wayne, Pa.) by the use of a broth microdilution method. Minimum inhibitory concentrations (MICs) for the tested compound were conducted using 12 different pathogens clinically isolated from diabetic foot ulcers and are all resistant strains for at least 10 antibiotics used for diabetic foot ulcer treatment. S. aureus 1, 2 and 3 and S. pyogenes 1, 2 and 3 as […] bacteria and P. mirabilis 1, 2 and 3 and Ps. aeruginosa 1, 2 and 3 as […] bacteria. The test materials were dissolved in DMSO. The highest concentration used was 256 μg/ml. The inoculum was 10^5CFU/ml for bacteria and 10^4CFU/ml for the yeast. Bacteria were cultured in Mueller Hinton Broth (MHB) for 24 h at 35° C. and the yeast in Glucose Peptone Broth (GPB) for 48 h at 30° C. MIC value was corresponding to the lowest concentration that inhibited the bacterial growth.
(§2) For the following seven samples, MICs values were determined and the antimicrobial activity is inversely proportional to this value. Concentrations used in this screening were: 1, 2, 4, 8, 16, 32, 64, 128 and 256 (μg/ml). 1 μg/ml corresponds to a 10^−4% solution and an Ag(I) concentration of about 2·10^−6 mol/dm^3.

S. aureus 3 = assay: MIC, broth microdilution (NCCLS); format: cell-based; conditions: Gram positive; resistant clinical isolate from diabetic foot ulcer; MHB 24 h 35° C.
Description: as §1, §2

S. pyogenes 2 = assay: MIC, broth microdilution (NCCLS); format: cell-based; conditions: Gram positive; resistant clinical isolate from diabetic foot ulcer; MHB 24 h 35° C.
Description: as §1, §2

S. aureus 1 = assay: MIC, broth microdilution (NCCLS); format: cell-based; conditions: Gram positive; resistant clinical isolate from diabetic foot ulcer; MHB 24 h 35° C.
Description: as §1, §2

Ps. aeruginosa 1 = assay: MIC, broth microdilution (NCCLS); format: cell-based; conditions: Gram negative; resistant clinical isolate from diabetic foot ulcer; MHB 24 h 35° C.
Description: as §1, §2

S. pyogenes 1 = assay: MIC, broth microdilution (NCCLS); format: cell-based; conditions: Gram positive; resistant clinical isolate from diabetic foot ulcer; MHB 24 h 35° C.
Description: as §1, §2

S. pyogenes 3 = assay: MIC, broth microdilution (NCCLS); format: cell-based; conditions: Gram positive; resistant clinical isolate from diabetic foot ulcer; MHB 24 h 35° C.
Description: as §1, §2

P. mirabilis 2 = assay: MIC, broth microdilution (NCCLS); format: cell-based; conditions: Gram negative; resistant clinical isolate from diabetic foot ulcer; MHB 24 h 35° C.
Description: as §1, §2

S. aureus 2 = assay: MIC, broth microdilution (NCCLS); format: cell-based; conditions: Gram positive; resistant clinical isolate from diabetic foot ulcer; MHB 24 h 35° C.
Description: as §1, §2

P. mirabilis 3 = assay: MIC, broth microdilution (NCCLS); format: cell-based; conditions: Gram negative; resistant clinical isolate from diabetic foot ulcer; MHB 24 h 35° C.
Description: as §1, §2

solubility in DMSO (Solubility in DMSO)	Compound	MIC P. mirabilis 1 (P. mirabilis 1)	MIC S. aureus 3 (S. aureus 3)	MIC S. pyogenes 2 (S. pyogenes 2)	MIC S. aureus 1 (S. aureus 1)	MIC Ps. Aeruginosa 1 (Ps. aeruginosa 1)	MIC S. pyogenes 1 (S. pyogenes 1)	MIC S. pyogenes 3 (S. pyogenes 3)	MIC P. mirabilis 2 (P. mirabilis 2)	MIC S. aureus 2 (S. aureus 2)	MIC P. mirabilis 3 (P. mirabilis 3)
3000 to 5000 µg/mL	COC(=O)c1ccncc1.O=[N+]([O-])[O-].[Ag+] [Compound 4, [Ag(methylisonicotinate)2]NO3]	2 µg/mL	8 µg/mL	128 µg/mL	16 µg/mL	128 µg/mL	64 µg/mL	64 µg/mL	1 µg/mL	32 µg/mL	2 µg/mL
3000 to 5000 µg/mL	CCOC(=O)c1cccnc1.O=[N+]([O-])[O-].[Ag+] [Compound 2, [Ag(ethylnicotinate)2]NO3]	128 µg/mL	4 µg/mL	4 µg/mL	16 µg/mL	64 µg/mL	2 µg/mL	2 µg/mL	128 µg/mL	4 µg/mL	256 µg/mL
3000 to 5000 µg/mL	CCOC(=O)c1ccncc1.O=[N+]([O-])[O-].[Ag+] [Compound 3, [Ag(ethylisonicotinato)2]NO3]	8 µg/mL	16 µg/mL	16 µg/mL	8 µg/mL	32 µg/mL	32 µg/mL	16 µg/mL	2 µg/mL	4 µg/mL	16 µg/mL
–	Nc1ncccc1C(=O)O.Nc1ncccc1C(=O)O.O=[N+]([O-])[O-].O=[N+]([O-])[O-].[Ag+].[Ag+] [Compound 6, [Ag2-μ-O,O′(2-aminonicotinium)2](NO3)2]	64 µg/mL	64 µg/mL	256 µg/mL	32 µg/mL	8 µg/mL	128 µg/mL	256 µg/mL	16 µg/mL	32 µg/mL	32 µg/mL
